Consider 20 compounds from patent publication US20090318493A1 (Roche Palo Alto LLC, priority 2008, published 2009).

Like-named read-outs stand apart in the source and are kept apart here.

What all share (format): binding
In one experiment the target is T1, hSERT transporter (Homo sapiens, UniProt P31645).
T1 construct: expressed in transfected cells; membranes prepared
Kind of experiment: Human serotonin transporter (hSERT) scintillation proximity assay, competition with [3H]-Citalopram. From the text:
Screening for Human Serotonin Transporter (hSERT) Antagonists Using a Scintillation Proximity Assay (SPA)
The screening assay of this example was used to determine the affinity of ligands at the hSERT transporter by competition with [^3H]-Citalopram.
Scintillation Proximity Assay (SPA) works by bringing radioligand within close proximity to the bead's scintillant to stimulate light emission. In this assay, the receptor-containing membranes were pre-coupled to the SPA beads and the binding of the appropriate radioligand to the transporter was measured. The light emission was proportional to the amount of bound radioligand. Unbound radioligand produced no signal as a result of distant proximity to scintillant (lack of energy transfer).
Cells are released from culture flasks using PBS for 1-2 minutes. The cells were subsequently centrifuged at 1000 g's for 5 minutes and resuspended in PBS prior to being used in the membrane preparation.
(§1) Cell membranes were prepared using a membrane preparation buffer of 50 mM TRIS (pH 7.4). Cell membranes were prepared from a single cube (7.5×10^9 cells total). Cells were homogenized using a Polytron (setting medium for a 4 second burst). The homogenate was then centrifuged at 48,000×g for 15 minutes, the supernatant subsequently removed and discarded, and the pellet resuspended with fresh buffer. After a second centrifugation, the pellet was re-homogenized and brought to a final volume determined during the assay. Typically, membrane portions were aliquoted in 3 mg/ml (w:v). and stored at −80° C.
Compounds of the invention were diluted from 10 mM to 0.1 nM FAC (10 point curves, whole log/half log dilutions) via a Beckman Biomek 2000 using a serial dilution protocol. The test compounds were then transferred (20 μl/well) and the [^3H]-Citalopram radioligand was added at 50 μl/well. Membrane and beads were prepared to a ratio of 10 μg: 0.7 mg, with 0.7 mg PVT-WGA Amersham beads (Cat# RPQ0282V) added per well. 130 μl of the membrane: bead mixture was added to the assay plate.
The % inhibition was calculated for each compound tested [(Compound counts per minute (CPM) at maximum concentration-Non-Specific CPM)/Total CPM*100].
(§2) where max=total binding, min=non specific binding, x=concentration (M) of the tested compound and n=Hill slope. The inhibition dissociation constant (Ki) of each compound was determined according to the method of Cheng-Prusoff and then converted into negative logarithm (pKi) of the Ki.
For orientation: SPA uses beads or plates that emit light when radiolabelled molecules are held near them.

Another experiment has as its target T2, hDAT (Homo sapiens, UniProt Q01959).
T2 construct: expressed in transfected cells; plated whole cells
Kind of experiment: Human dopamine transporter scintillation proximity assay, competition with [3H]-Vanoxerine. Here is the method:
This assay was used to determine the affinity of ligands for the dopamine transporter by competition with [^3H]-Vanoxerine.
Cells were plated four hours prior to experiment by placing approximately 30,000 cells per well (in PBS) on white, opaque Cell-Tak coated 96 well plates. Extra buffer was apriated from the cell plates using an ELx405 plate washer.
Compounds of the invention were diluted from 10 mM to 0.1 nM FAC (10 point curves, whole log/half log dilutions) via a Beckman Biomek 2000 using a 10-point dilution protocol. The mixtures were allowed to stand at room temperature for 30 minutes, and were then counted on a Packard TopCount LCS, a generic SPA counting protocol settings, Count Time (min.): 0.40, Background Subtract: none, Half-Life Correction: none, Quench Indicator: tSIS, Platemap blank subtraction: none, Cross talk reduction: Off).
The % inhibition was calculated for each compound tested [(Compound CPM at maximum concentration-Non-Specific CPM)/Total CPM*100].
as §2

A further experiment concerns the target T3, hNET transporter (Homo sapiens, UniProt P23975).
T3 construct: expressed in transfected cells; membranes prepared
The experiment can be described thus: Human norepinephrine transporter (hNET) scintillation proximity assay, competition with [3H]-Nisoxetine. Here is the method:
This assay was used to determine the affinity of ligands for the hNET transporter by competition with [^3H]-Nisoxetine. As in the hSERT assay of the above example, receptor-containing membranes were pre-coupled to the SPA beads and the binding of the appropriate radioligand to the transporter was measured. The light emission was proportional to the amount of bound radioligand, with unbound radioligand producing no signal.
HEK-293 cells (Tatsumi et al., Eur. J. Pharmacol. 1997, 30, 249-258) stably expressing recombinant hNET (Clone: HEK-hNET #2) were maintained with media (DMEM hi glucose with 10% FBS, 300 μg/ml G418 and 2 mM L-Glutamine) and incubated at 37° C. with 5% CO2. Cells were released from culture flasks using PBS for 1-2 minutes. The cells were subsequently centrifuged at 1000 g's for 5 minutes and resuspended in PBS prior to being used in the membrane preparation.
as §1, with “(7.5×10^9cells” for “(7.5×10^9 cells”, “3-6 mg/mil” for “3 mg/ml”
^3[H] […] Compounds of the invention were diluted from 10 mM to 0.1 nM FAC (10 point curves, whole log /half log dilutions) via a Beckman Biomek 2000 using a serial dilution protocol. The test compounds were then transferred (20 μl/well) and the radioligand was added at 50 μl/well. Membrane and beads were prepared to a ratio of 10 μg: 0.7 mg, with 0.7 mg PVT-WGA Amersham beads (Cat# RPQ0282V) added per well. 130 μl of the membrane: bead mixture was added to the assay plate. The mixtures were allowed to stand at room temperature for one hour, and were then counted on a Packard TopCount LCS, a generic SPA counting protocol settings (Energy Range: Low, Efficiency Mode: Normal, Region A: 1.50-35.00, Region B: 1.50-256.00, Count Time (min.): 0.40, Background Subtract: none, Half-Life Correction: no, Quench Indicator: tSIS, Platemap blank subtraction: No, Cross talk reduction: Off).
The % inhibition was calculated for each compound tested [(Compound CPM at maximum concentration-Non-Specific CPM)/Total CPM*100]. The concentration producing 50% inhibition (IC50) was determined using an iterative non-linear curve fitting technique with Activity Base/Xlfit using the following equation:
as §2

[1] abbreviates: Table 1, read-out: pIC50 NET (converted).
Setting [2] is: Table 1, read-out: pIC50 DAT (converted).
Setting [3] is: Table 1, read-out: pIC50 SERT (converted).

T3 sequence (P23975 whole entry): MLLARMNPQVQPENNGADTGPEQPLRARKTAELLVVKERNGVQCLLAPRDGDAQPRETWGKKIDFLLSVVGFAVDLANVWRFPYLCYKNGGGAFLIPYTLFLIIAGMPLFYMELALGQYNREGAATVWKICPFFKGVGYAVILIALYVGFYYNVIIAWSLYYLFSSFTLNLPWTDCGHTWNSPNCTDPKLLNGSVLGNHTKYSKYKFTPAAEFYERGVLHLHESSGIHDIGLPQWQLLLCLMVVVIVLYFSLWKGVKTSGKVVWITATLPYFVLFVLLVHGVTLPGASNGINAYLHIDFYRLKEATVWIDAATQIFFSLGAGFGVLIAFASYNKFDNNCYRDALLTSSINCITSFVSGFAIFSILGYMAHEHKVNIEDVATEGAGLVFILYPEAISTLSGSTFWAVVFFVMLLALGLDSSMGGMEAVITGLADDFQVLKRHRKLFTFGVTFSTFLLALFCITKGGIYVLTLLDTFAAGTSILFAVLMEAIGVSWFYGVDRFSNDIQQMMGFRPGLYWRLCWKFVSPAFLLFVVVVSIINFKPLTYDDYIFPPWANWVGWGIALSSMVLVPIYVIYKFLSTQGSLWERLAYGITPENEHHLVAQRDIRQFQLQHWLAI
T2 sequence (Q01959 whole entry): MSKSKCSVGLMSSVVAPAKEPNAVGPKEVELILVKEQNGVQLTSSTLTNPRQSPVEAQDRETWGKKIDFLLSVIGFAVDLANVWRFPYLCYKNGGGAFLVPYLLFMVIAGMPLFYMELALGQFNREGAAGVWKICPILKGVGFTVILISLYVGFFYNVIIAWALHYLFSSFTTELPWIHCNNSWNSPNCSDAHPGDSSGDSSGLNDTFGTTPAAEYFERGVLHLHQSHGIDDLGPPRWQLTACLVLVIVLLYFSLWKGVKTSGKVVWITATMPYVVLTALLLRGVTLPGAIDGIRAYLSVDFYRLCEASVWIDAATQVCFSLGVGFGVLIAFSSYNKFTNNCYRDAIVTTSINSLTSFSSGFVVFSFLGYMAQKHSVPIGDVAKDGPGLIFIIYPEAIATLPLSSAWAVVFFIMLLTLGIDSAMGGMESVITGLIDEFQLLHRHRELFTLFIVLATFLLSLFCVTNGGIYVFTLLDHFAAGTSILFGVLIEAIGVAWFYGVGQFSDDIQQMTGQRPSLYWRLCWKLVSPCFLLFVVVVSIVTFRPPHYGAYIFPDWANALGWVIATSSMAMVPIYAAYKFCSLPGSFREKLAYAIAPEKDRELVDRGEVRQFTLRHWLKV
T1 sequence (P31645 whole entry): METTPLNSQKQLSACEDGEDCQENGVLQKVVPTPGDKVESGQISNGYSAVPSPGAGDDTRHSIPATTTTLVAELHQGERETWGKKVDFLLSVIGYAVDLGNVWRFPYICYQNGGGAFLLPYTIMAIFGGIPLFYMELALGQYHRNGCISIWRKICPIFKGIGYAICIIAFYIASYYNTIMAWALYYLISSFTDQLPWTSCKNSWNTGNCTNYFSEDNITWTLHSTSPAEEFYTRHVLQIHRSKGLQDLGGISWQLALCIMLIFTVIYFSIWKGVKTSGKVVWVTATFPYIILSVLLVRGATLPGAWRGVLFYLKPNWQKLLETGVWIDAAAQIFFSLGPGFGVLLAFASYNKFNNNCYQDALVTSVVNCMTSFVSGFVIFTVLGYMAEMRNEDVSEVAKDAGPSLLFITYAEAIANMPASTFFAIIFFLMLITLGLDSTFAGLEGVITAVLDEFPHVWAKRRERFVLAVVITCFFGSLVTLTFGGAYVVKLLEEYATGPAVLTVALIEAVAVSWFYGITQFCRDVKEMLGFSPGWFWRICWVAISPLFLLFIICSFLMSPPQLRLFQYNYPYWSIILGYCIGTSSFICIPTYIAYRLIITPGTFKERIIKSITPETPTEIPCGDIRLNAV

For the compound `CCCC[C@@]1(C(=O)c2ccc(Cl)c(Cl)c2)CC[C@@H]2CC[C@H]1N2C` (mixture of isomers) [Compound 54, ((1R,2R,SR)-2-Butyl-8-methyl-8-aza-bicyclo[3.2.1]oct-2-yl)-(3,4-dichloro-phenyl)-methanone], the figures for the IC50 at hSERT transporter, at hDAT and at hNET transporter (setting [1]) were 331 nM, 28.2 nM and 501 nM, respectively.

With `CC(C)CC1(C(=O)c2cc(F)c(N)c(Cl)c2)CCNC1` (stereo in doubt) [Compound 24, (4-Amino-3-chloro-5-fluoro-phenyl)-((R)-3-isobutyl-pyrrolidin-3-yl)-methanone], the results for the IC50 at hSERT transporter, on hDAT and at hNET transporter (setting [1]) were 24.5 nM, 25.1 nM and 20 nM, respectively.

Take `CCCC1(C(=O)c2ccc(Cl)c(Oc3ccccc3)c2)CCNC1` (stereo in doubt) [Compound 29, (4-Chloro-3-phenoxy-phenyl)-((S)-3-propyl-pyrrolidin-3-yl)-methanone]: the results for the IC50 at hSERT transporter, at hDAT and at hNET transporter (setting [1]) were 13.2 nM, 10.5 nM and 2.63 nM, respectively.

As for `CCCC1(C(=O)c2ccc(Cl)c(Oc3ccccc3)c2)CCNC1` (stereo in doubt) [Compound 30, (4-Chloro-3-phenoxy-phenyl)-((R)-3-propyl-pyrrolidin-3-yl)-methanone], the values for the IC50 on hSERT transporter, at hDAT and on hNET transporter (setting [1]) were 18.6 nM, 2.34 nM and 24 nM, respectively.

Turning to `Cc1cc(C(=O)C2(CCC(C)(C)C)CCNC2)ccc1Cl` (stereo not shown) [Compound 1, (4-Chloro-3-methyl-phenyl)-[3-(3,3-dimethyl-butyl)-pyrrolidin-3-yl]-methanone], the IC50 at hSERT transporter was 1.51 nM; at hDAT, 6.31 nM; on hNET transporter (setting [1]), 5.5 nM.

For the compound `CC(C)C[C@@]1(C(=O)c2ccc(Cl)c(Cl)c2N)CCNC1` [Compound 2, (2-Amino-3,4-dichloro-phenyl)-((R)-3-isobutyl-pyrrolidin-3-yl)-methanone], the IC50 at hSERT transporter is 2.19 nM; on hDAT (setting [2]), 692 nM; on hNET transporter it was 38 nM.

For `CCCC[C@]1(C(=O)c2ccc(Cl)c(Cl)c2N)CC2CC[C@H]1N2` [Compound 3], the IC50 on hSERT transporter is 83.2 nM; on hDAT, 70.8 nM; on hNET transporter (setting [1]), 182 nM.

For the compound `CC(C)(C)CCOc1cc(C(=O)C2(CCC(C)(C)C)CCNC2)ccc1Cl` (stereo not shown) [Compound 4, [4-Chloro-3-(3,3-dimethyl-butoxy)-phenyl]-[3-(3,3-dimethyl-butyl)-pyrrolidin-3-yl]-methanone], the IC50 at hSERT transporter (setting [3]) is 85.1 nM; at hDAT (setting [2]), 1000 nM; on hNET transporter (setting [1]), 912 nM.

Regarding `CC(C)(C)CCC1(C(=O)c2ccc(Cl)c(OCc3ccccc3)c2)CCNC1` (stereo not shown) [Compound 5, (3-Benzyloxy-4-chloro-phenyl)-[3-(3,3-dimethyl-butyl)-pyrrolidin-3-yl]-methanone], the IC50 on hDAT (setting [2]) is 1450 nM; on hNET transporter (setting [1]), 363 nM.

For `COC(C)(C)CCC1(C(=O)c2cc(F)c3[nH]ccc3c2)CCNC1` (stereo not shown) [Compound 6], the results for the IC50 on hSERT transporter, on hDAT and at hNET transporter (setting [1]) were 1.07 nM, 15.5 nM and 4.79 nM, respectively.

`CC(C)(C)CCC1(C(=O)c2ccc(Cl)c(Oc3ccccc3F)c2)CCNC1` (stereo not shown) [Compound 9, [4-Chloro-3-(2-fluoro-phenoxy)-phenyl]-[3-(3,3-dimethyl-butyl)-pyrrolidin-3-yl]-methanone]: the IC50 was 1120 nM on hDAT (setting [2]) and 45.7 nM on hNET transporter (setting [1]).

With `CCCC1(C(=O)c2ccc(Cl)c(OCc3ccccc3)c2)CCNC1` (stereo not shown) [Compound 10, (3-Benzyloxy-4-chloro-phenyl)-(3-propyl-pyrrolidin-3-yl)-methanone], the IC50 at hSERT transporter was 20.4 nM; on hNET transporter (setting [1]), 1700 nM.

Consider `CCCC1(C(=O)c2ccc(Cl)c(OCC3CCOCC3)c2)CCNC1` (stereo not shown) [Compound 13, [4-Chloro-3-(tetrahydro-pyran-4-ylmethoxy)-phenyl]-(3-propyl-pyrrolidin-3-yl)-methanone], for which the IC50 on hSERT transporter (setting [3]) was 145 nM.

In the case of `CCCC1(C(=O)c2ccc(Cl)c(OC(F)(F)F)c2)CCNC1` (stereo not shown) [Compound 14, (4-Chloro-3-trifluoromethoxy-phenyl)-(3-propyl-pyrrolidin-3-yl)-methanone], the IC50 is 2.75 nM on hSERT transporter and 302 nM on hNET transporter (setting [1]).

Regarding `CCCC1(C(=O)c2ccc(Br)c(Oc3ccccc3)c2)CCNC1` (stereo not shown) [Compound 20, (4-Bromo-3-phenoxy-phenyl)-(3-propyl-pyrrolidin-3-yl)-methanone], the figures for the IC50 on hSERT transporter and at hNET transporter (setting [1]) were 12.6 nM and 7.94 nM, respectively.

As to `CC[C@@]1(C(=O)c2ccc(Cl)c(Cl)c2)CC[C@@H]2CC[C@H]1N2C` [Compound 53, (3,4-Dichloro-phenyl)-((1R,2R,5R)-2-ethyl-8-methyl-8-aza-bicyclo[3.2.1]oct-2-yl)-methanone], the IC50 on hSERT transporter was 41.7 nM; on hDAT, 288 nM.

As for `CCCC1(C(=O)c2ccc(Cl)c(-c3cccnc3)c2)CCCNC1` (stereo not shown) [Compound 55, (4-Chloro-3-pyridin-3-yl-phenyl)-(3-propyl-piperidin-3-yl)-methanone], at hSERT transporter (setting [3]), the IC50 is 245 nM.

`CCCC1(C(=O)c2ccc(-n3ccnc3)c(Br)c2)CCCNC1` (stereo not shown) [Compound 57, (3-Bromo-4-imidazol-1-yl-phenyl)-(3-propyl-piperidin-3-yl)-methanone]: the IC50 at hSERT transporter was 91.2 nM; on hDAT (setting [2]), 4270 nM.

In the case of `CCCC1(C(=O)c2ccc(Cl)c(-n3ccnc3)c2)CCCNC1` (stereo not shown) [Compound 58, (4-Chloro-3-imidazol-1-yl-phenyl)-(3-propyl-piperidin-3-yl)-methanone], the IC50 on hSERT transporter was 79.4 nM; at hDAT (setting [2]) it was 1480 nM.

Consider `CCCC1(C(=O)c2ccc3ccccc3c2)CCNC1` (stereo not shown) [naphthalen-2-yl-(3-propyl-pyrrolidin-3-yl)-methanone], for which the Ki at hSERT transporter (SPA, [3H]-Citalopram, approximate value, read-out: pKi human serotonin transporter (converted)) is ~0.151 nM.
